# Literature values, collected in patent publication US20240148037A1, “STEVIOL GLYCOSIDE FORMULATIONS FOR FOOD AND BEVERAGES” (SWEEGEN, INC., priority 2019, published 2024).
# Conditions: relative to sucrose
row,Compound,times sweeter than sucrose
1,C=C1C[C@@]23CC[C@H]4[C@@](C)(CCC[C@@]4(C)C(=O)O[C@@H]4O[C@H](CO)[C@@H](O)[C@H](O)[C@H]4O)[C@@H]2CC[C@]1(O[C@@H]1O[C@H](CO)[C@@H](O)[C@H](O)[C@H]1O[C@@H]1O[C@@H](C)[C@H](O)[C@@H](O)[C@H]1O)C3 [Dulcoside A],about 30 times
2,C=C1C[C@@]23CC[C@H]4[C@@](C)(CCC[C@@]4(C)C(=O)O[C@@H]4O[C@H](CO)[C@@H](O)[C@H](O)[C@H]4O)[C@@H]2CC[C@]1(O[C@@H]1O[C@H](CO)[C@@H](O)[C@H](O)[C@H]1O[C@@H]1O[C@H](CO)[C@@H](O)[C@H](O)[C@H]1O)C3 [stevioside],100-150 times
3,Rebaudioside C,40-60 times
